Results taken from US8057829B2, “Methods for repelling insects using sesquiterpene hydrocarbons and their derivatives” (Sterling International Inc., priority 2008, dated 2011).

Experiments:
Phlebotomus papatasi = test: Y-tube olfactometer behavioral bioassay (spatial repellency); assay type: in vivo; details: for SAI (Spatial Activity Index): Phlebotomus papatasi; for Number of mosquitoes in each arm: Repellent: Phlebotomus papatasi (sand fly) females, release rate per chemical (1-35 mg/day); for Number of mosquitoes in each arm: Repellent / Number of mosquitoes in each arm: Blank / Number of mosquitoes in each arm: Bottom: 10 min; for Number of mosquitoes in each arm: Blank / Number of mosquitoes in each arm: Bottom: Phlebotomus papatasi females, release rate per chemical
Summary of the method: (§1)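 Female insects (25-40 per run; mosquitoes 6-10 days old, sand flies 3-10 days) released into a CO2-baited Y-tube holding a treatment dispenser in one arm and a blank in the other; arm counts taken after 10 min at 23-25° C. Arms swapped in a repeat run; pooled data tested by χ2 (df=1).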

Anopheles stephensi = test: as above; assay type: in vivo; details: for Number of mosquitoes in each arm: Repellent / Number of mosquitoes in each arm: Blank / Number of mosquitoes in each arm: Bottom: Anopheles stephensi females; for SAI (Spatial Activity Index): Anopheles stephensi
Summary of the method: as §1

Aedes aegypti = test: as above; assay type: in vivo; details: for Number of mosquitoes in each arm: Blank / Number of mosquitoes in each arm: Bottom / Number of mosquitoes in each arm: Repellent: Aedes aegypti females, release rate per chemical (1-60 mg/day), 10 min; for Number of mosquitoes in each arm: Repellent: two replicates pooled; for SAI (Spatial Activity Index): Aedes aegypti, (Nc − Nt)/(Nc + Nt), −1 to 1, zero indicating no response
Summary of the method: as §1

houseflies = test: Laboratory sticky trap bioassay of spatial repellency with egg powder attractant; assay type: in vivo, housefly (Musca domestica); details: for female house flies per trap / male house flies per trap: egg powder plus repellent; for repellency against houseflies, in words: laboratory trap bioassay with egg powder attractant
Experimental: Laboratory bioassay tests were carried out to investigate the efficacy of some of the EAD-active compounds described above to act as spatial repellents against several insects. The procedure for the bioassay tests is described in Example 2 below. Briefly stated, the bioassay included using egg powder (EP) as an attractant for flies, while the compound whose insect repellency was being tested was placed in proximity to the egg powder. In FIGS. 11-13, the bioassay was carried out on houseflies using devices known by the designation Trécé Pherocon® VI sticky traps.
The following lab bioassay tests were employed to illustrate the efficacy of the compounds to effectively act as spatial repellents for flies. Three sets of tests were conducted in a fly testing room (23° C., 70% RH, and 12/12 (L/D) light regime illuminated by fluorescent lights). Two sets of tests were carried out using Trécé Pherocon® VI traps with sticky inserts, which were set up on poles evenly spaced on a rotating table. The traps were ca. 1 m above a table surface, and ca. 1 m apart from each other. Two grams of egg powder in a white cap (4 cm in diameter, 0.5 cm in height) used as an attractant was put on the center of the sticky insert in the sticky trap. The potential repellent candidate chemicals were loaded into polyethylene bags, and were hung under the inner roof of the traps, 1-1.5 cm above the egg powder attractant. A control had the empty white cap and blank polyethylene bag, while the positive control had only the egg powder and an empty polyethylene bag. The test table was rotated 1.5 r.p.h. […] About 200-300 houseflies (2-3 days old) were released into the testing room for each test. Tests were normally run from 8:00 am to 5:00 pm, and the numbers of houseflies caught in each trap were counted after each test. The results of these tests are shown in FIGS. 11-13 and described above.

[1] = test system: housefly (Musca domestica) antenna; test: GC-EAD antennal response, housefly; details: synthetic mixture, about 100 ng of each compound
[2] = release rate per chemical (1-60 mg/day; β-Caryophyllene 10 mg/day), 10 min
[3] = release rate per chemical (β-Caryophyllene 10 mg/day), 10 min
[4] = FIG. 13, egg powder alone 76 females
[5] = FIG. 13, egg powder alone 95 males
[6] = female housefly antenna, FIG. 3
[7] = FIG. 12, egg powder alone 35 females
[8] = FIG. 12, egg powder alone 68 males

| SMILES | SAI (Spatial Activity Index) (Phlebotomus papatasi) | Number of mosquitoes in each arm: Repellent (Phlebotomus papatasi) | Number of mosquitoes in each arm: Blank (Phlebotomus papatasi) | Number of mosquitoes in each arm: Bottom (Phlebotomus papatasi) | Number of mosquitoes in each arm: Repellent (Anopheles stephensi; [2]) | Number of mosquitoes in each arm: Blank (Anopheles stephensi; [3]) | Number of mosquitoes in each arm: Bottom (Anopheles stephensi; [3]) | SAI (Spatial Activity Index) (Anopheles stephensi; β-Caryophyllene 10 mg/day) | Number of mosquitoes in each arm: Blank (Aedes aegypti) | Number of mosquitoes in each arm: Bottom (Aedes aegypti) | Number of mosquitoes in each arm: Repellent (Aedes aegypti) | SAI (Spatial Activity Index) (Aedes aegypti) | female house flies per trap (houseflies; [4]) [house flies per trap] | male house flies per trap (houseflies; [5]) | repellency against houseflies, in words (houseflies) | GC-EAD antennal activity [1, 6] | female house flies per trap (houseflies; [7]) [house flies per trap] | male house flies per trap (houseflies; [8]) | GC-EAD antennal activity ([1]; male housefly antenna, FIG. 4) | also measured |
| --- | --- | --- | --- | --- | --- | --- | --- | --- | --- | --- | --- | --- | --- | --- | --- | --- | --- | --- | --- | --- |
| C=C1C2CCC3[C@H]2C(C)(C)CCC[C@]13C (single isomer, unassigned; (+)) [(+)-Longifolene] | 0.55 | 5 | 17 | 41 | 9 | 23 | 29 | 0.44 | 20 | 37 | 5 | 0.60 | 4 | one | strongest repellent against houseflies | active |  |  |  |  |
| C=C1CC/C=C(/C)CC[C@@H]2[C@@H]1CC2(C)C [Isocaryophyllene, isocaryophyllene] | 0.23 | 40 | 64 | 34 | 8 | 21 | 26 | 0.45 | 35 | 31 | 8 | 0.63 |  |  |  |  | 15 | 14 house flies per trap | EAD-active |  |
| C=C1CC/C=C(\C)CC[C@@H]2[C@@H]1CC2(C)C [β-Caryophyllene, β-caryophyllene] | 0.57 | 9 | 33 | 25 | 19 | 23 | 26 | 0.10 | 20 | 40 | 6 | 0.54 | 10 | two | effective housefly repellents | active | 12 | six | EAD-active | Number of mosquitoes in each arm: Blank (Anopheles stephensi; release rate 35 mg/day, PE-Bag): 22; Number of mosquitoes in each arm: Bottom (Anopheles stephensi; release rate 35 mg/day, PE-Bag): 43; Number of mosquitoes in each arm: Repellent (Anopheles stephensi; release rate 35 mg/day, PE-Bag): 5; SAI (Spatial Activity Index) (Anopheles stephensi; release rate 35 mg/day): 0.63; number of house flies per trap (houseflies; egg powder attractant plus repellent, FIG. 11, egg powder alone 44): 3.5 house flies per trap |
